# According to US20250179024A1, “AMYLOID AND ASSOCIATED PATHOLOGY MODULATORS AND METHODS THEREOF” (Jawaharlal Nehru Centre for Advanced Scientific Research, priority 2022, published 2025):
# Key:
# IL6 = assay: Western blot of IL6 in C6 microglia; assay type: cell-based; details: LPS 500 ng/mL, Aβ 5 μM, compound 10 μM; changes statistically insignificant
# Experimental: Western blot analysis was performed to analyse the changes in the protein levels from cell lysates. SH-SY5Y and C6 cells were cultured to 80% confluence in T25 flask, trypsinised and seed into 12 well plate. The cells were cultured for 30 h and then treated with LPS (500 ng/mL) in low serum media for 6 h. Then the cells were treated with Aβ42 (5 μM) alone and with NMIs (M3) (10 μM) for 18 h. The cells were harvested by trypsinisation and the protein was extracted in RIPA lysis buffer with protease inhibitor cocktail (1×). Briefly cells were washed with dPBS and lysed in […] of RIPA lysis buffer with gentle shaking in 4° C. for 30 min. Then the cells were centrifuged at 16000 g for 20 min and the supernatant containing protein was collected and quantified by Bradford assay. The protein lysate was subjected to SDS-PAGE (12% resolving gel) and transferred to PVDF membrane. The blot paper was blocked with 5% skim milk powder for 1 h at room temperature and then washed thrice with TBST. The blots were incubated with primary antibodies for 20 h at 4° C. The blots were washed thrice with TBST for 5 min and then incubated with anti-rabbit HRP-conjugated secondary antibodies for 1 h at room temperature. […] All the western blots were quantified by using ImageJ, data was plotted and analysed by GraphPad prism5. […]
# SH-SY5Y cells [1] = assay: Mitochondrial membrane potential (MMP) measurement, Mitotracker Orange; assay type: cell-based; details: Aβ 20 μM, 18 h; for MMP relative to control (100%): Aβ alone 70%
# Experimental: For quantifying relative change in MMP, SH-SY5Y cells were seeded into 96 plates and incubated. After 24 h, cells were treated with Aβ (20 μM) alone and with two different concentrations of NMIs (M3) (20 and 50 μM) for 18 h and stained with Mitotracker Orange (500 nM) in media for 15 min followed by washing with PBS twice. Then quickly fluorescence was measured (λex=554 nm and λem=576 nm) by Spectramax multi-well plate reader in well scan mode (>80 points, with 6 flashes per read) and averaged the value. The relative fluorescence of treatments in comparison with control was calculated to assess the change in MMP.
# For fluorescence imaging, cells were seeded into glass bottom dishes and incubated for 24 h. Then treated with Aβ (20 μM) alone and with NMIs (M3) (50 μM) in low serum media for 18 h and stained with Mitotracker Orange (500 nM) in media for 15 min. Cells were washed with PBS thrice and imaged in live cell set up in Rhodamine channel using 63× oil immersion using Leica DMi8 fluorescence microscope.
# The compound M3 with aggregation modulation and antioxidant activity potentially prevent Aβ mediated mitochondrial damage. Quantitatively measurement of mitochondrial membrane potential (MMP) changes was carried out. SH-SY5Y cells were cultured in 96 well plate, treated with Aβ (20 μM) alone and with different concentrations of M3 (20 μM and 50 μM) for 18 h and relative MMP was measured using MitoOrange fluorescence, a MMP-dependent mitochondrial probe. MMP of Aβ treated cells dropped to 70% compared to control (100%) reflecting the functional damage to mitochondria. Upon treatment with M3 at two concentrations 20 μM and 50 µM, MMP was improved to 88% and 93%, respectively, which indicated prevention of mitochondrial damage (FIG. 14A).
# Changes in MMP were visualized by treating the cells with Aβ (20 μM) alone and with M3 (50 μM) for 18 h followed by staining with MitoOrange. […] The ability of M3 to modulate Aβ-induced ROS levels in mitochondria was evaluated by the MitoSOX probe. […]
# SH-SY5Y cells [2] = assay: Mitochondrial ROS measurement, MitoSOX; assay type: cell-based; details: Aβ 40 μM, 8 h, Aβ alone 1.76 fold
# Experimental: For quantifying mitochondrial ROS levels, SH-SY5Y cells were seeded into 96 well plates and incubated. After 24 h cells were treated with Aβ (20 μM) alone and with two different concentrations of NMIs (M3) (20 and 50 μM) for 8 h and stained with MitoSox Red (5 μM) in PBS for 15 min followed by a wash with PBS thrice. Then quickly fluorescence was measured (λex=510 nm and λem=580 nm) by Spectramax multi-well plate reader in well scan mode (>80 points, with 6 flashes per read). The relative fluorescence was used to assess ROS levels with respect to control. For ROS imaging, cells were seeded onto glass bottom dishes and incubated for 24 h. Cells were treated with Aβ (20 μM) and with NMIs (M3) (50 μM) in low serum media for 8 h. Then the cells were washed with PBS and stained with MitoSOX (5 μM) prepared in PBS and incubated. After 15 min, wash thrice with PBS and imaged in live cell set up in rhodamine channel using 63× oil immersion using Leica DMi8 fluorescence microscope.
# Changes in MMP were visualized by treating the cells with Aβ (20 μM) alone and with M3 (50 μM) for 18 h followed by staining with MitoOrange. […] The ability of M3 to modulate Aβ-induced ROS levels in mitochondria was evaluated by the MitoSOX probe. The cells were treated with Aβ (40 μM) alone and with two concentrations of M3 for 8 h followed by treatment with MitoSOX to measure the relative ROS levels. […]
# [3] = biological target: T1, Aβ in the presence of Zn (II) (Homo sapiens, UniProt P05067); assay: Zn-dependent Aβ aggregation, native PAGE and western blot; assay type: biochemical; details: Aβ 10 μM, Zn (II) 20 μM, NMIs 20 μM, 37° C., 48 h
# T1 construct: is a 42 amino acid proteolytic product from the amyloid precursor protein; purchased Invitrogen
# Experimental: The samples were prepared by incubating Aβ42 with specific concentration of NMI compounds of present disclosure and metal ions for 48 h and then subjected to 6% native polyacrylamide gel electrophoresis (Native-PAGE) in tris-glycine buffer. The lower molecular weight aggregates permeabilized through the gel and resolved in the gel. Higher molecular aggregates stuck in the upper part of wells and potentially carried in gel. Then the protein was transferred to PVDF membrane for 4 h at cold condition maintained using ice cold transfer buffer and immersing the transfer apparatus in ice. Then the blots were continued similar to dot blots.
# The absorbance and fluorescence spectroscopy studies together with mass spectrometry data confirmed the selective Cu (II) or Zn (II) chelation property of M1 and M3. […] Aβ (10 μM) was incubated in the presence of Cu (II) or Zn (II) (20 μM) with NMIs at 37° C. for 48 h and the samples were subjected to native PAGE and western blot analysis. […] Modulation of Zn-dependent Aβ aggregation by M4 was attributed to its two Zn (II) chelation centres. M3 with dopamine and DPA moieties effectively modulated both Cu (II) and Zn (II)-dependent Aβ aggregation. The effect of NMIs on the morphological outcome of metal-dependent Aβ aggregation was visualized by AFM imaging (FIGS. 1E and 1F). Aβ in the presence of Cu (II) and Zn (II) formed dense and thick fibrils.
# T1 sequence (P05067 672-713 limits assumed): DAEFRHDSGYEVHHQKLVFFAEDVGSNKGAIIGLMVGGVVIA
structure (smiles),measurement,setting,value
"O=C1c2cccc3c(N(Cc4ccccn4)Cc4ccccn4)ccc(c23)C(=O)N1CCc1ccc(O)c(O)c1 [M3, 6-(bis(pyridin-2-ylmethyl)amino)-2-(3,4-dihydroxyphenethyl)-1H-benzo[de]isoquinoline-1,3(2H)-dione]",IL6 level,IL6,reduced
same,MMP relative to control (100%),SH-SY5Y cells [1]; compound 20 μM,88%
same,MMP by fluorescence imaging,SH-SY5Y cells [1]; compound 50 μM,least affected
same,MMP relative to control (100%),SH-SY5Y cells [1]; compound 50 µM,93%
same,mitochondrial ROS levels compared to control cells,SH-SY5Y cells [2]; compound 20 μM,1.6 fold
same,mitochondrial ROS levels compared to control cells,SH-SY5Y cells [2]; compound 50 μM,1.25 fold
same,Zn-dependent Aβ aggregation,[3],reduce Zn-dependent Aβ aggregation
